Test results from publication PMC8710297, “Identification of potent SENP1 inhibitors that inactivate SENP1/JAK2/STAT signaling pathway and overcome platinum drug resistance in ovarian cancer” (Clinical and Translational Medicine, 2021).

Experiments:
SENP1(C603A) = molecular target: T1, SENP1(C603A) (Homo sapiens, UniProt Q9P0U3, C603A); assay: UPLC-MS/MS of UA associated with IPs of SENP1 proteins; assay type: binding; settings: mass-spec and surface plasmon resonance analyses
T1 construct: GST; made in house
T1 sequence (Q9P0U3 1-644 C603A): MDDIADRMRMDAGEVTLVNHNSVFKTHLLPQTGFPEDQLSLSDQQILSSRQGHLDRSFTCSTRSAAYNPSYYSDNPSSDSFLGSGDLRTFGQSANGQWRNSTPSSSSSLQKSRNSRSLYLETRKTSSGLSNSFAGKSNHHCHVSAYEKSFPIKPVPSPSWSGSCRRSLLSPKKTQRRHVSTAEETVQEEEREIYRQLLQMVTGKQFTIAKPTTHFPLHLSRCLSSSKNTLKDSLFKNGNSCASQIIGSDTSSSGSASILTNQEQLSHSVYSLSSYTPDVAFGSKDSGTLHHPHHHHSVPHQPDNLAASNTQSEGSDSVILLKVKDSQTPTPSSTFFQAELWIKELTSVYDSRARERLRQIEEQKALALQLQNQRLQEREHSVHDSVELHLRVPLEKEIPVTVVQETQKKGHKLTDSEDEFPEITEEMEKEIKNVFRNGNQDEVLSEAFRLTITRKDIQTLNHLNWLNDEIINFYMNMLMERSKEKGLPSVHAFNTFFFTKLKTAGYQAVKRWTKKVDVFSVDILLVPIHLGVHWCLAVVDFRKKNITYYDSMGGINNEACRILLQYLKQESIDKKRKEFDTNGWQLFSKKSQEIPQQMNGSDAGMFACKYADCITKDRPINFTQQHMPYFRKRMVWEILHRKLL
Procedure: FIGURE 2 UA directly interacts with Sentrin‐specific protease 1 (SENP1). (A) Cellular thermal shift assay to examine the interaction of UA with SENP1. IGROV1 CR cells pretreated with MG132 (10 μM, 1 h) were incubated with DMSO or UA for 4 h before being shifted to indicated temperatures. SENP1 stability was analyzed by using Western blot against SENP1 antibody. Right panel, quantification of non‐denatured SENP1 fraction shown in the left panel. (B) Cell‐free thermal shift assay to examine interactions of UA with SENP1. Purified SENP1 proteins were incubated with DMSO or UA for 4 h before being shifted to the indicated temperatures. SENP1 stability was analyzed by using Western blot against SENP1 antibody. Right panel, quantification of non‐denatured SENP1 fraction shown in the left panel. […] Stability of SENP1(C603A) was analyzed by using Western blot against SENP1 antibody. […] Left; Ultra‐high performance liquid‐chromatography‐MS/MS analyses of associated UA in indicated samples, right; quantification of data shown in left (the binding affinity of UA with SENP1‐C603A was normalized as 1). […]
Cell viability was detected using Sulforhodamine B (SRB) assay as described previously (3).
Absorbance at 51 0 nm was detected using a SpectraMax Re a d e r (Molecular Devices) and […]

IGROV1 CR cells = assay: Drug synergy screening: SRB proliferation assay with 2 μM cisplatin; assay type: cell-based
Procedure: (A) Collection of Momordin Ic (Mc) natural compound analogues. […] Cell proliferation was determined by the sulforhodamine B (SRB) assay. […] IGROV1 CR cells were incubated with Mc at indicated concentrations for 48 h and then harvested for Western blot for indicated proteins. […] IGROV1 CR cells were incubated with UA and then treated as in C. […] Intensity of SUMOylated JAK2 was measured by Quantity One software. […] Recombinant His‐JAK2 was SUMOylated by in vitro SUMOylation assay, and then SUMOylated JAK2 proteins were incubated with or without recombinant GST‐SENP1 together with Mc for 3 h. […] In vitro assay was performed as in (F). […]

binding of UA to SENP1(C603A) compared to SENP1 (SENP1(C603A)) | SMILES | IC50 of UA derivatives to inhibit resistant cells together with cisplatin (in words) (IGROV1 CR cells)
decreased binding affinities | C[C@H]1[C@H](C)CC[C@]2(C(=O)O)CC[C@]3(C)C(=CC[C@@H]4[C@@]5(C)CC[C@H](O)C(C)(C)[C@@H]5CC[C@]43C)[C@H]12 [UA, ursolic acid, reference compound] | –
– | C[C@H]1[C@H](C)CC[C@]2(C(=O)NCC(=O)N(C)CCO)CC[C@]3(C)C(=CC[C@@H]4[C@@]5(C)CC[C@H](O)C(C)(C)[C@@H]5CC[C@]43C)[C@H]12 [UAMMC9] | lower IC50
